From patent publication US20210038732A1, “ANTICANCER MICRORNA AND LIPID FORMULATIONS THEREOF” (INTERNA TECHNOLOGIES B.V., priority 2018, published 2021)

Tests used:
4T1 cells = test: Adoptive CD3+ T-cell transfer from survivors into naive mice, 4T1 challenge; assay type: in vivo; conditions: 1×107 CD3+ T-cells iv; followed about 5 weeks; vs control naïve mice
Procedure: Adoptive transfer of CD3+ T cells form the survivor mice into naive mice was performed after spleens, auxiliary, brachial, and inguinal lymph nodes excision. Cell suspension were made from the indicated organs and pooled. Then, CD3+ T-cells were isolated from the pool using magnetic beads according the manufacturer's protocol (Miltenyi Biotech). 1×107 CD3+ T-cells per mouse were injected intravenously.
On day 133 post-tumor cell inoculation CD3+ T-cells were recovered from the spleens, auxiliary, brachial, and inguinal lymph nodes of the surviving animals. T-cells were pooled and transferred i.v. to 6 naïve age-matched mice (1×107 CD3+ Tcells per mouse at day 0). One day post-T-cell transfer, animals were re-challenged with 3×10^5 4T1 cells in PBS (0.1 mL/mouse) in the right mammary fat pad of 6 naive age-matched mice (as control group) and the 6 mice that received CD3+ T-cells. Tumor growth was followed for about 5 weeks.

HCT116 = test: Caspase 3/7 apoptosis assay; assay type: cell-based; conditions: 10 nM, normalized to mock
Procedure: (§1) Depending on cancer cell type 3000-6000 cells were seeded in a 96 well plate. After cells attached, they were transfected with different concentrations of miRNA-193a and apoptosis induction was measured at different time points. This assay was performed using Promega kit. 100 uL of caspase reagent was added to 100 uL of media in each well in 96-well plate and incubated for 2 hours in the dark at room temperature. The luminescent signal was read on a luminescent plate reader.
(§2) Different biological effects of miRNA-193a-3p have been tested in various cancer cell lines (see Table 13). For this, various cells were treated with miRNA-193a at different concentrations (1, 3, 10 nM). For all experiments controls (untreated, mock and scrambled) were measured. All assays were performed at 24h, 48h and 72h time points. Data shown in Table 13 are the results for miRNA-193a at 10 nM concentration at indicated time points. All the results have been quantified and normalized to the mock control.
(§3) miRNA-193a treatment in various cancer cell lines decreased cell viability over time as measured by either an MTS assay or by cell count. It enhanced apoptosis induction over time as measured by a caspase 3/7 apoptosis assay. […] It is of note that due to intrinsic characteristics and gene mutation status of each cell line, performing one method to detect apoptosis is not always ideal for all cell lines.

H1299 = test: Caspase 3/7 apoptosis assay; assay type: cell-based; conditions: 10 nM, normalized to mock
Procedure: as §1, §2, §3

Panc-1 = test: Caspase 3/7 apoptosis assay; assay type: cell-based; conditions: 10 nM, normalized to mock
Procedure: as §1, §2, §3

EMT6 = test: Caspase 3/7 apoptosis assay; assay type: cell-based; conditions: 10 nM, normalized to mock
Procedure: as §1, §2, §3

H1975 = test: Caspase 3/7 apoptosis assay; assay type: cell-based; conditions: 10 nM, normalized to mock
Procedure: as §1, §2, §3

[1] = test system: subq human A2058 melanoma tumors; test: Tumor growth inhibition, different doses and regimens, subq A2058 (Example 4.5); assay type: in vivo, mice; conditions: day 21
Procedure: Six to eight weeks old female BALB/c nude mice (Shanghai Lingchang Bio-Technology Co. Ltd, Shanghai, China) were unilaterally and subcutaneously injected in the right flank with 5×10^6 A2058 tumor cells in PBS (0.1 mL/mouse). At the time of randomization, the TVs ranged between 50.3 and 156.3 mm3 (median 104.8, IQR=91.9-127.1). After randomization, the mice received different miRNA-193a dosing concentrations under different dosing regimen (see Table 10 for dosing scheme). The BRAF-inhibitor vemurafenib was also included. Body weights and TVs (caliper measurements) were determined three times/week. *QDx3,QDx4=one injection per day for 3 or 4 consecutive days; BIW=twice a week, BID=twice daily. Po=per oral.

A2058 melanoma cells = test: Malachite Green Phosphate Assay (free phosphate generation); assay type: cell-based, human; conditions: miRNA-193a-3p at 10 nM, vs untreated, mock, scrambled
Procedure: 2000 A2058 melanoma cells were seeded per well in a 96 well plate. 24h after seeding, cells were transfected with different concentrations of miRNA-193a-3p, scrambled control, siNT5E and siPool as control. Malachite Green Phosphate Assay (Sigma Aldrich) was used to measure the liberation of phosphate from nucleoside triphosphates ATP following inhibition of CD39 (ENTPD1) and CD73 (NT5E) as target genes of miRNA-193a-3p 24h and 48h post transfection. The rapid colour formation from the reaction can be conveniently measured on a plate reader (600-660 nm).

[2] = test system: H22 (mouse liver tumor cells); test: Re-challenge of surviving treated mice with H22 cells (Example 4.4); assay type: in vivo
Procedure: To investigate the long-term immunity in miRNA-193a treated mice against 4T1 cells, on day 75 after inoculation, mice treated with miRNA-193a and 8 naïve (non-tumor bearing) mice were re-challenged by subcutaneous injection of 3×10^5 4T1 mouse tumor cells in PBS (0.1 mL/mouse) into the right front flank. TV and BW were monitored for 3 weeks. Then, to investigate the immunization status of miRNA-193a treated mice against other cell types, on day 101, mice treated with miRNA-193a and 8 naïve (non-tumor bearing) mice were re-challenged by subcutaneous injection of H22 (mouse liver tumor cells) cells in PBS (0.1 mL/mouse) into the right lower flank.

[3] = test system: subq human A2058 melanoma tumors; test: Tumor growth inhibition in mice bearing subq A2058 tumors (Example 4.2); assay type: in vivo
Procedure: To determine TGI effects, the T/C (tumor/control) ratio was determined by calculating the relative percentage increase in TV (tumor volume) for the individual mice of each group (TV of the day of randomization as reference point), and then dividing the group median relative increase in TV for the treated groups by that for the PBS group. Outliers (with respect to individual TVs) within each treatment group were determined by using the formulas Q1−1.5×IQR (lower limit) and Q3+1.5×IQR (upper limit).
Statistical analysis was performed using Graphpad Prism 7. A two-tailed, non-parametric Mann-Whitney test was used to calculate differences in relative tumor volumes (TV on day ‘X’ divided by TV on the day of randomization). In all statistical tests, the effect of the test items was compared to the PBS group. A p-value <0.05 was considered statistically significant.
Four to six weeks old female athymic nude mice (Crl:NU(NCr)-Foxn1nu; Charles River) were unilaterally and subcutaneously injected in the flank with 1×10^7 A2058 cells in 50% matrigel (0.2 mL/mouse). At the time of randomization, the TVs (tumor volumes) ranged between 139.4 and 245.5 mm3 (median 161.3, IQR=149.9-175.1). Body weights and TVs (caliper measurements) were determined three times/week. […]

miRNA-193a: duplex of the miRNA-193a-3p of SEQ ID NO: 218 (mimic, sense) with antisense strand SEQ ID NO: 219; naked in vitro, formulated in vivo (sense UGGGACUUUGUAGGCCAGUUTT; antisense AACUGGCCUACAAAGUCCCAGU; chemistry not given here; listed as Homo sapiens)
4T1 tumor growth in naive mice that received CD3+ T-cells from treated survivors (4T1 cells): did not show any 4T1 tumor growth | Apoptosis (48/72 h) (HCT116): ↑↑ (Induction > 2x) | Apoptosis (48/72 h) (H1299): ↑ (Induction < 2x) | Apoptosis (48/72 h) (Panc-1): ↑↑ (Induction > 2x) | Apoptosis (48/72 h) (EMT6): ↑↑ (Induction > 2x) | Apoptosis (48/72 h) (H1975): ↑ (Induction < 2x) | Tumor growth (relative tumor volume) ([1]; QDx3 6.7 mg/kg iv x3 weeks, nanoparticles according to the invention): significant reduction of tumor growth | Tumor growth (relative tumor volume) ([1]; the other dosing regimen (10 mg/kg BIW; 5 mg/kg QDx4)): mild trend | Free phosphate generation (A2058 melanoma cells): reduced the level of free phosphate production | Tumor take after re-challenge with H22 cells ([2]; re-challenge day 101, 38 days post end of treatment): 100% | H22 tumor growth after re-challenge ([2]; re-challenge day 101, vs naïve mice): rapid inhibition of H22 tumor growth | T/C (relative tumor volume) ([3]; 3 mg/kg iv QDx5 then BIW, Table 1 entry 1 nanoparticles, 12 days after start of treatment): 0.44 | TGI effects ([3]; formulated in nanoparticles according to the invention, 3 mg/kg iv): significant TGI effects
